In US20170189391A1, “Protein kinase C inhibitor for treating triple-negative breast cancer” (Macau University of Science ang Technology, priority 2015, published 2017):

Key:
BT-549 [1] = assay: In vitro cell proliferation assay (SRB assay); format: cell-based; details: Homo sapiens; BT-549 (TNBC), 72-hour treatment
Experimental: (§1) The anti-proliferative effects of tested agents on breast cancer cell lines were assessed by sulforhodamine B (SRB) colorimetric assay as previously described. Briefly, cells were seeded in 96-well plates in a volume of […] at densities of 5,000˜40,000 cells per well. After overnight incubation at 37° C. in a humidified incubator with 5% CO2, 100 ml medium containing agents (2 X indicated concentrations) were added. After 72-hour treatment, attached cells were fixed with 50 ml cold 50% (w/v) trichloroacetic acid (TCA) for 1 hour at 4° C. and then stained with 100 ml 0.4% (w/v) SRB. The absorbency at 515 nm was measured using SpectraMax 190 microplate reader (Molecular Devices) after solubilizing the protein-bound dye with 200 ml 10 mM Tris base solution (pH 10.5). The IC50 value was defined as the concentration required for a 50% reduction in cell growth.
(§2) To test in vitro anti-proliferative activity of chelerythrine on breast cancer cells, four TNBC cell lines (MDA-MB-231, BT-549, HCC1937 and MDA-MB-468) and four non-TNBC cell lines (MCF7, ZR-75-1, SK-BR-3 and MDA-MB-453) were treated with a series of chelerythrine concentrations ranging from […] for 72 hours. […] On the contrary, the tested non-TNBC cell lines were relatively resistant to chelerythrine treatment on compared with the TNBC cell lines.

HCC1937 [2] = assay: In vitro cell proliferation assay (SRB assay); format: cell-based; details: Homo sapiens; HCC1937 (TNBC), 72-hour treatment
Experimental: as §1, §2

MCF7 = assay: In vitro cell proliferation assay (SRB assay); format: cell-based; details: Homo sapiens; MCF7 (Non-TNBC), 72-hour treatment
Experimental: as §1, §2

MDA-MB-231 [3] = assay: In vitro cell proliferation assay (SRB assay); format: cell-based; details: Homo sapiens; MDA-MB-231 (TNBC), 72-hour treatment
Experimental: as §1, §2

MDA-MB-468 [4] = assay: In vitro cell proliferation assay (SRB assay); format: cell-based; details: Homo sapiens; MDA-MB-468 (TNBC), 72-hour treatment
Experimental: as §1, §2

SK-BR-3 = assay: In vitro cell proliferation assay (SRB assay); format: cell-based; details: Homo sapiens; SK-BR-3 (Non-TNBC), 72-hour treatment
Experimental: as §1, §2

MDA-MB-453 = assay: In vitro cell proliferation assay (SRB assay); format: cell-based, human; set-up: inhibitory effect at the highest concentration tested: dose or concentration left out as unconfirmed
Experimental: as §1, §2

ZR-75-1 = assay: In vitro cell proliferation assay (SRB assay); format: cell-based, human; set-up: inhibitory effect at the highest concentration tested: dose or concentration left out as unconfirmed
Experimental: as §1, §2

[5] = test system: TNBC cell lines (MDA-MB-231, BT-549, HCC1937 and MDA-MB-468); assay: In vitro cell proliferation assay (SRB assay), four TNBC lines together; format: cell-based, human; details: for cell growth: 5 mM (so in the source) chelerythrine
Experimental: as §1, with “After 72-hour treatment, attached cells were fixed with 50 ml cold 50% (w/v) trichloroacetic acid (TCA) for 1 hour at 4° C. and then stained with 100 ml 0.4% (w/v) SRB.” left out
as §2

[6] = test system: non-TNBC cell lines (MCF7, ZR-75-1, SK-BR-3 and MDA-MB-453); assay: In vitro cell proliferation assay (SRB assay), four non-TNBC lines together; format: cell-based, human
Experimental: as §1, §2

TNBC cells [7] = assay: Colony formation assay; format: cell-based, human; details: chelerythrine 5 μM (FIG. 1C)
Experimental: (§3) Four non-triple-negative breast cancer (Non-TNBC) cell lines (MCF7, ZR-75-1, SK-BR-3 and MDA-MB-453) and four triple-negative breast cancer (TNBC) cell lines (MDA-MB-231, BT549, HCC1937 and MDA-MB-468) were used to determine the growth inhibition effect of chelerythrine. […] The cell number at each chelerythrine concentration is represented as a percentage of control (treatment without chelerythrine). Average values are calculated from three independent experiments performed in duplicate (n=3). […] The cell number at each time point is represented as a percentage of control (treatment without chelerythrine). Average values are calculated from three independent experiments performed in duplicate (n=3). […] Representative colony formation assay plates are shown, which are quantified by counting colony number (n=4). Data is shown as mean±SD. […] Cells were then washed with PBS, plated in drug-free medium in 6-well plates at densities of 2,000 cells/well and incubated for 7-10 days in the absence of drug. Colonies were stained with 0.2% (w/v) crystal violet in buffered formalin for 10 minutes. The number of colonies was counted.

non-TNBC cells [8] = assay: Colony formation assay; format: cell-based, human; details: treatment for 48 hours, chelerythrine 5 μM (FIG. 1C)
Experimental: as §3

BT-549 [9] = assay: Flow-cytometric analysis of cell cycle; format: cell-based, human; details: BT-549, chelerythrine 5 mM (so in the source), 24 hours
Experimental: (§4) Four Non-TNBC cell lines and four TNBC cell lines as mentioned above were treated with chelerythrine (CHE, 5 μM) for 24 hours. […] Average values are calculated from three independent experiments (n=3). Data is shown as mean±SD.
(§5) Flow cytometric analyses were performed to define the cell cycle distribution […] after treatment with […] chelerythrine. Cells were harvested, washed twice with PBS, resuspended in 0.5 ml PBS (1,000,000˜2,000,000 cells/ml). Then 4 ml 70% ethanol was added and the mixture was kept at −20° C. for 2 hours to fix the cells. Cells were stained for total DNA content with a solution containing […] propidium iodide, 200 μg/ml DNase-free RNase A, and 0.1% triton X-100 in PBS for 30 minutes at room temperature. Cell cycle distribution was analyzed by flow cytometry (BD Bioscience). The percentages of the total cell population in the four different phases (Sub-G0/G1, G0/G1, S, G2/M) of cell cycle was determined using FlowJo software.

HCC1937 [10] = assay: Flow-cytometric analysis of cell cycle; format: cell-based, human; details: HCC1937, chelerythrine 5 mM (so in the source), 24 hours; 45.1% without treatment
Experimental: as §4, §5

MDA-MB-231 [11] = assay: Flow-cytometric analysis of cell cycle; format: cell-based, human; details: MDA-MB-231, chelerythrine 5 mM (so in the source), 24 hours
Experimental: as §4, §5

MDA-MB-468 [12] = assay: Flow-cytometric analysis of cell cycle; format: cell-based, human; details: MDA-MB-468, chelerythrine 5 mM (so in the source), 24 hours
Experimental: as §4, §5

non-TNBC cells [13] = assay: Flow-cytometric analysis of cell cycle; format: cell-based, human; details: chelerythrine 5 mM (so in the source), 24 hours
Experimental: as §4, §5

all TNBC cell lines = assay: Flow-cytometric analysis of cell cycle, all TNBC lines; format: cell-based, human; details: upon chelerythrine treatment, 24 hours
Experimental: as §4, §5

HCC1937 [14] = assay: Flow-cytometric analysis of apoptosis (Annexin V/PI); format: cell-based, human; details: HCC1937, 24 hours, chelerythrine 5 μM (FIG. 3)
Experimental: (§6) Four Non-TNBC cell lines and four TNBC cell lines as mentioned above were treated with chelerythrine (CHE, 5 μM) for 24 hours. […] Reprehensive pictures are shown (400×). […] FIGS. 3C, 3D and 3E show the representative contour diagrams of FITC Annexin V/PI flow cytometry of cells. Fractions of apoptotic cells were quantified. Average values are calculated from three independent experiments (n=3). […] Apoptosis was analyzed by flow cytometry with Annexin V/PI staining. Representative contour diagrams and quantified data are shown. Average values are calculated from three independent experiments (n=3). Data is shown as mean±SD.
(§7) Cellular apoptosis was analyzed with BD Annexin V: Fitc Apoptosis Detection Kit I (BD Bioscience) by flow cytometry. Briefly cells were plated in 6-well plates (100,000˜400,000 cells/well) and treated with chelerythrine. At the indicated time point, cells were harvested, washed twice with cold PBS, and resuspended in 1X Binding Buffer at a concentration of 1,000,000 cells/ml. 100 μl cells were transferred to 1.5 ml conical tube and 5 μl FITC Annexin V and 5 μl propidium iodide were added. The mixture was gently vortexed and incubated at room temperature for 15 minutes in the dark, followed by adding 400 μl 1x Binding Buffer to each tube. Cells were filtered and analyzed by flow cytometry (BD Bioscience) within 1 hour. Total apoptotic cells (FITC Annexin V positive) were counted.

MDA-MB-231 [15] = assay: as above; format: cell-based, human; details: MDA-MB-231, 24 hours, chelerythrine 5 μM (FIG. 3)
Experimental: as §6, §7

MDA-MB-468 [16] = assay: as above; format: cell-based, human; details: MDA-MB-468, 24 hours, chelerythrine 5 μM (FIG. 3)
Experimental: as §6, §7

T-549 = assay: as above; format: cell-based, human; details: T-549 (so in the source), 24 hours, chelerythrine 5 μM (FIG. 3)
Experimental: as §6, §7

four non-TNBC cell lines = assay: as above; format: cell-based, human; details: same treatment, 24 hours
Experimental: as §6, §7

TNBC cells [17] = assay: Assessment of cell morphological changes (Hoechst 33258 staining); format: cell-based, human; details: 24 hours
Experimental: as §6
(§8) Cells were plated in 12-well plates (80,000-300,000 cells/well) and then treated with […] chelerythrine for 24 hours. After incubation, cells were collected, washed with PBS and stained with Hoechst 33258 (11.1 mg/ml) in buffered formalin solution containing 5.6% NP-40. Living and apoptotic cells were visualized through DAPI filter of fluorescence inverted microscope (Leica DM2500 Fluorescence Microscope) at ×400 magnification.

non-TNBC cells [18] = assay: as above; format: cell-based, human; details: 24 hours
Experimental: as §6, §8

TNBC cell lines = assay: Western blotting of cleaved PARP (cPARP); format: cell-based, human; details: TNBC compared with non-TNBC cell lines, after chelerythrine treatment
Experimental: as §6
Protein samples were prepared by adding RIPA buffer with protease inhibitor cocktail (Roche) to cells and diluted in SDS-PAGE protein sample buffer. Samples were heated for 5 minutes at 95° C. before fractionation on SDS-polyacrylamide gels. The proteins were then transferred to Immobilon P (Millipore) and incubated with primary antibodies overnight at 4° C. The membranes were then washed with TBST and incubated with the appropriate horseradish peroxidase-conjugated secondary antibodies at room temperature. Proteins were visualized with SuperSignal West Dura Extended Duration Substrate or SuperSignal West Pico Chemiluminescent Substrate (Thermo Scientific).

## COc1ccc2c(c[n+](C)c3c4cc5c(cc4ccc23)OCO5)c1OC [chelerythrine]
BT-549 [1]
  IC50: 2.6 µM
HCC1937 [2]
  IC50: 3.6 µM
MCF7
  IC50: > 10 µM
MDA-MB-231 [3]
  IC50: 3 µM
MDA-MB-468 [4]
  IC50: 4.2 µM
SK-BR-3
  IC50: > 10 µM
MDA-MB-453; Homo sapiens, MDA-MB-453 (Non-TNBC), 72-hour treatment
  IC50: > 10 µM
MDA-MB-453; MDA-MB-453, highest concentration tested, 72 hours
  inhibitory effect at the highest concentration tested: did not show any inhibitory effect
ZR-75-1; Homo sapiens, ZR-75-1 (Non-TNBC), 72-hour treatment
  IC50: > 10 µM
ZR-75-1; ZR-75-1, highest concentration tested (so in the source), 72 hours
  inhibitory effect at the highest concentration tested: did not show any inhibitory effect
[5]; 24 hour
  cell growth: significant reduction of cell growth
[5]; 72 hour
  cell growth: almost died out
[5]; Homo sapiens, range over MDA-MB-231, BT-549, HCC1937 and MDA-MB-468, 72 hours, read-out: IC50 values, growth of TNBC cell lines
  IC50: 2.6 to 4.2 µM
[6]; 5 mM (so in the source) chelerythrine, each time point, versus TNBC lines
  inhibition of cell growth: much less inhibition of cell growth
[6]; Homo sapiens, 72 hours, read-out: IC50 values of all of the four non-TNBC cell lines
  IC50: > 10 µM
TNBC cells [7]; treatment for 3 hours
  colony formation ability: dramatically decreased
TNBC cells [7]; treatment for 6 hours
  Colony formation: almost no cells grew into colonies
non-TNBC cells [8]
  colony formation ability: reserved largely of their colony formation ability
BT-549 [9]
  cell cycle progression: no obvious changes
HCC1937 [10]
  percentage of cells in G0/G1 phase: 52.9%
MDA-MB-231 [11]
  cell cycle progression: no obvious changes
MDA-MB-468 [12]
  cell cycle arrest: marked cell cycle arrest at G2/M phase
non-TNBC cells [13]
  cell cycle distribution: basically unchanged
All TNBC cell lines
  nuclei with sub-G0/G1 DNA content characteristic of apoptosis: substantial proportion
HCC1937 [14]
  mean percentages of apoptotic cells: 22.2%
MDA-MB-231 [15]
  mean percentages of apoptotic cells: 67.8%
MDA-MB-468 [16]
  mean percentages of apoptotic cells: 35.3%
T-549
  mean percentages of apoptotic cells: 51.0%
Four non-TNBC cell lines
  apoptosis induction / viability: remained viable
TNBC cells [17]
  apoptotic morphological changes: caused chromatin condensation and nuclear fragmentation
non-TNBC cells [18]
  apoptotic morphological changes: not in non-TNBC cells
TNBC cell lines
  cleaved nuclear poly (ADP-ribose) polymerase (cPARP), marker of apoptosis: detection of the cleaved nuclear poly (ADP-ribose) polymerase
